Experimental data taken from patent US20220339257A1, “METHODS TO INCREASE THE SENSITIVITY AND REVERSING THE RESISTANCE TO DRUGS” (Biomarker Strategies, LLC, priority 2019, published 2022).

Key:
Format in all cases: cell-based
[1] = tested on: Ca9-22 cells; assay: Western blot of protein biomarkers; settings: osimertinib (100 nM)+IL-17 (10 ng/mL)
Procedure: (§1) MTA and EM effects on protein biomarker expression were measured by western blotting. For the assay cell lines (Ca9-22, PE/CA-PJ15, HTB-38, HPAF-II, CAL27, BICR-16, A-253, Calu-6, PC-9, H1838, RPMI-7951 and A7) were cultured and treated with doses of MTAs alone, EMs alone and in combination and then lysed for protein analysis. This method can readily be conducted under adherent or suspension conditions, manually or on automated instruments, such as SnapPath. A total of 0.3×10^6 cells per well were seeded in 6 well plates with 10% FBS-containing media and incubated for 24 hours. Cells were then treated with MTA and/or EM concentrations for 24 hours. For total protein extraction, briefly, each sample media was collected, and wells were washed with HMS, and the wash was combined with its respective media collection. Cells were then detached using Accutase solution and again collected in its respective sample media and another HMS well wash and collection was performed. All cell solutions were centrifuged, washed with ice-cold PBS, and centrifuged again. Cell pellets were lysed in 250 μL of ice-cold 1× lysis buffer with protease and phosphatase inhibitor cocktails and incubated for 10 minutes on ice. Lysates were clarified with a centrifugation (14,000 rpm) for 10 minutes at 4° C. Cell lysates were quantified using Bio-Rad DC Protein Assay (Bio-Rad Cat. #5000116).
(§2) For all western blots, an equal amount of protein (3-5 μg) was loaded into SDS-polyacrylamide gels (Mini-Protean TGX Precast Gel; Bio-Rad, e.g. 7.5%, Cat. #4561024; 10%, Cat. #4561035; 12%, Cat. #4561045; or 4-15%, Cat. #4561085). Proteins were separated at 215V for at least 30 minutes in 1× Tris/Glycine/SDS buffer (Bio-Rad Cat. #1610772) and transferred to PVDF membranes using a Trans-Blot Turbo (Bio-Rad Cat. #1704155) for 7 minutes in transfer buffer (Trans-Blot Turbo Transfer Kit, Bio-Rad Cat. #1704273). Blots were blocked at room temperature for 1 hour with 5% non-fat dry milk in tris-buffered saline with Tween 20 (TBST; 15 mM Tris-HCl, pH 7.5, 200mMNaCl and 0.1% Tween 20). Membranes were incubated with primary antibodies at 4° C. overnight and at room temperature for 1 hour the next day; all primary antibodies were diluted following manufacturer's specifications in TBST with either 5% BSA or 5% non-fat dry milk. Membranes were washed in TBST for 5 minutes, three times, and incubated with HRP-conjugated secondary antibodies diluted 1:5000 in TBST with 5% non-fat dry milk at room temperature for 1 hour (anti-rabbit IgG, Bio-Rad Cat. #1706515; or anti-mouse IgG, Bio-Rad Cat. #1706516). Membranes were then washed in TBST for 10 minutes, three times, and target proteins were identified using Clarity Western ECL Substrate (Bio-Rad Cat. #1705061) on autoradiography film (GenHunter Cat. #B581, Nashville, Tenn., USA). Other assay types, such as Luminex multiplexed immunoassays, ICC, IHC, flow cytometry, etc. can be used readily.

[2] = tested on: HPAF-II cells; assay: Western blot of protein biomarkers; settings: trametinib (100 nM)+IL-17 (10 ng/mL), 24 hours
Procedure: as §1, §2

[3] = tested on: Ca9-22; assay: WST-8 cell viability assay; settings: in combination with osimertinib, 72 hours
Procedure: (§3) Day 1: cells were harvested cells from flask (4 mL accutase for T175 for 3-5 minutes), and spin down for 5 mins at 1200 rpm. The supernatant was poured off, and the pellet gently resuspended in 1 mL media. Countess counts were performed, and the cells were diluted in media (10% FBS). With multi-channel pipette, 2500 cells were seeded in 100 uL of media (10% FBS) in each well of 96 well plate. The cells were let to adhere and grow for 24 hours. Day 2: serial drug dilutions of MTAs+/−EMs at 5× of concentrations (as done above) were performed in media (10% FBS). 20 uL of media form each well of the 96 well plate (80 uL media left in wells) was removed, and 20 uL of appropriate 5× drug dilutions was added to each respective well (for a 1× conc). The cells were incubated with drug for 72 hours in 37C incubator. Day 5: 10 uL of WST-8 reagent was added to each well of the 96 well plate and mixed gently. the plates were incubated up to 4 hours at 37C in dark, and absorbance readings were taken at […] and 600 nm wavelengths at 1, 2, 3 and 4h, until control absorbance levels were 1.5-2.0).
(§4) WST-8 Assay: MTA and EM effects on cell viability were measured by Cell Counting Kit8 (WST-8) colorimetric assay using water-soluble tetrazolium salt WST-8 reagent (Vita Scientific Cat. #DBOC00128). For the assay, cells were seeded in 96-well plates at 2,500 cells per well, in 100 μL of 10% FBS-containing media. After 24 hours, a 1 nM to 10 μM range of MTA and/or 1 ng/mL to 1 mg/mL range of EM doses was added and incubated for 72 hours. After treatment, a 10% volume of WST-8 reagent was added to each well and cells were incubated at 37° C. for up to 4 hours. Solution absorbance was measured at wavelengths of 450 nm and 600 nm at 1-, 2-, 3-, and 4-hour's incubation. Percentage viability of drug-treated cells was calculated relative to untreated control cells. Results were confirmed by three independent experiments.
(§5) For studying the effects of various molecularly targeted agents (MTAs) and enhancer molecules (EMs) alone as well as in combination: HCC827, PC-9, A427, Calu-6, H2228, H358, H1299, H460, H292, H1838, H2170, and H226 (non-small cell lung cancer; NSCLC); and SK-MES-1 […], CAL27, OE21, KYSE-70, A-253, BICR-16, PE/CA-PJ15 and Ca9-22 (head and neck squamous cell carcinoma; HNSCC); SK-MEL-2, SK-MEL-28, RPMI-7951 and A7 (melanoma); HTB-38 and HCT116 (colorectal cancer; CRC); BxPC-3 and HPAF-II (pancreatic cancer); HEPG2 (hepatocellular carcinoma; HCC); A498 (renal cell carcinoma; RCC) cells were used. Other cell lines, including those from other cancer types, or cells collected from more complex sample types such as xenografts and clinical samples can be used. Ultimately, these combinations can be utilized in various clinical and pre-clinical samples and studies. Using the WST-8 cell viability assay, a MTA+EM-induced anti-cancer/anti-growth activity in multiple cell lines was discovered (FIGS. 8-15). Other viability assays, for example, MTT, HoPI staining, dye exclusion (e.g. trypan blue), can be used readily. […] The cut-off value for classifying a “strong anti-cancer/anti-growth enhancement” was a response resulting in >70% reduction in cell survival compared to untreated control cells (100%), while showing greater reduction compared to both MTA and EM alone.

[4] = tested on: H2170; assay: WST-8 cell viability assay; settings: in combination with GSK-458, 72 hours
Procedure: as §3, §4, §5

[5] = tested on: A-253; assay: WST-8 cell viability assay; settings: in combination with spermidine, 72 hours
Procedure: as §3, §4, §5

[6] = tested on: Calu-6; assay: WST-8 cell viability assay
Procedure: as §3, §4, §5

[7] = tested on: HPAF-II; assay: WST-8 cell viability assay
Procedure: as §3, §4, §5

[8] = tested on: CAL27 cells; assay: Western blot of protein biomarkers; settings: GSK-795 (10 nM)+IFN-γ (50 ng/mL)
Procedure: as §1, §2

[9] = tested on: BxPC-3; assay: WST-8 cell viability assay; settings: in combination with GSK-458, 72 hours
Procedure: as §3, §4, §5

[10] = tested on: CAL27; assay: WST-8 cell viability assay; settings: in combination with GSK-795, 72 hours
Procedure: as §3, §4, §5

[11] = tested on: OE21; assay: WST-8 cell viability assay; settings: in combination with trametinib, 72 hours
Procedure: as §3, §4, §5

[12] = tested on: HTB-38; assay: WST-8 cell viability assay
Procedure: as §3, §4, §5

[13] = tested on: BICR-16; assay: WST-8 cell viability assay; settings: in combination with GSK-458, 72 hours
Procedure: as §3, §4, §5

[14] = tested on: panel of cell lines that included NSCLC, HNSCC, melanoma, and CRC; assay: WST8 in vitro sensitivity to MTAs with and without EM
Procedure: as §3
We used a panel of cell lines that included NSCLC, HNSCC, melanoma, and CRC. These cell lines are a good model system harboring similar (epi)genetic changes found in patients' tumors. We used the WST8 assay to determine the in vitro sensitivity to various MTAs with and without EM1.

[15] = tested on: Calu-6 cells; assay: Western blot of protein biomarkers; settings: GSK-458 (100 nM)+TNF-β (50 ng/mL), 24 hours
Procedure: as §1, §2

[16] = 24 hours, compared to either MTA or EM alone
[17] = compared to either therapy alone
[18] = in combination with trametinib, 72 hours
[19] = in combination with GSK-458, 72 hours

interleukin 17 [EM5]
p-AKT (Ser473) expression [1, 16]: strong reduction in p-AKT (Ser473) expression | Ki67 expression ([1]; compared to both MTA and EM alone): enhanced reduction in Ki67 expression | PARP cleavage ([2]; compared to MTA and EM alone): very strong PARP cleavage | p-AKT (Ser473) expression ([2]; compared to either MTA or EM alone): strong reduction in p-AKT (Ser473) expression | Ki67 degradation and/or fragmentation pattern [2, 17]: marked increase in the distinct degradation and/or fragmentation pattern of Ki67 | anti-cancer/growth enhancement (WST-8 cell viability) [3]: moderate-to-strong anti-cancer/growth enhancement | anti-cancer/growth enhancement (WST-8 cell viability) [4]: moderate-to-strong anti-cancer/growth enhancement | anti-cancer/growth enhancement (WST-8 cell viability) [5]: moderate-to-strong anti-cancer/growth enhancement | anti-cancer/growth enhancement (WST-8 cell viability) [6, 18]: moderate-to-strong anti-cancer/growth enhancement | anti-cancer/growth enhancement (WST-8 cell viability) [7, 18]: moderate-to-strong anti-cancer/growth enhancement

interferon-gamma [EM1, enhancer molecule, cytokine purchased from Sigma]
p-AKT (Ser473) expression [8, 16]: strong reduction in p-AKT (Ser473) expression | LC3II over LC3I expression ([8]; 24 hours, compared to either alone): marked increase in LC3II over LC3I expression | p62 expression [8, 17]: reduced p62 expression | anti-cancer/growth enhancement (WST-8 cell viability) [9]: moderate-to-strong anti-cancer/growth enhancement | anti-cancer/growth enhancement (WST-8 cell viability) [10]: moderate-to-strong anti-cancer/growth enhancement | anti-cancer/growth enhancement (WST-8 cell viability) [11]: moderate-to-strong anti-cancer/growth enhancement | anti-cancer/growth enhancement (WST-8 cell viability) [12, 19]: moderate-to-strong anti-cancer/growth enhancement | anti-cancer/growth enhancement (WST-8 cell viability) ([12]; in combination with dabrafenib, 72 hours): moderate-to-strong anti-cancer/growth enhancement | anti-cancer/growth enhancement (WST-8 cell viability) [12, 18]: moderate-to-strong anti-cancer/growth enhancement | anti-cancer/growth enhancement (WST-8 cell viability) ([6]; in combination with GSK-795, 72 hours): moderate-to-strong anti-cancer/growth enhancement | anti-cancer/growth enhancement (WST-8 cell viability) [13]: moderate-to-strong anti-cancer/growth enhancement | anti-cancer/growth enhancement (WST-8 cell viability) [7, 19]: moderate-to-strong anti-cancer/growth enhancement | anti-cancer/growth enhancement (WST-8 cell viability) [7, 18]: moderate-to-strong anti-cancer/growth enhancement | response enhancement (in vitro sensitivity to various MTAs with and without EM, WST8) [14]: no, minimal and strong response enhancement

B1: tumor necrosis factor-beta (protein, UniProt P01374 35-205, looked up)
Lymphotoxin-alpha: LPGVGLTPSAAQTARQHPKMHLAHSTLKPAAHLIGDPSKQNSLLWRANTDRAFLQDGFSLSNNSLLVPTSGIYFVYSQVVFSGKAYSPKATSSPLYLAHEVQLFSSQYPFHVPLLSSQKMVYPGLQEPWLHSMYHGAAFQLTQGDQLSTHTDGIPHLVLSPSTVFFGAFAL
notes: enhancer molecule, cytokine purchased from Sigma
PARP cleavage ([15]; compared to MTA and EM alone): very strong PARP cleavage | Ki67 degradation and/or fragmentation pattern [15, 17]: marked increase in the distinct degradation and/or fragmentation pattern of Ki67 | anti-cancer/growth enhancement (WST-8 cell viability) [3]: anti-cancer/growth enhancement
